Values of other authors as cited in patent publication US6342486B1, “Polymer glucan ether derivatives, their manufacturing as well as their use” (Mibelle AG Cosmetics, priority 1996, dated 2002).

Conditions: isolated glucan from yeast cells

Substance: 1,3-beta-polyglucose [glucan]
- solubility in aqueous systems: extremely low solubility
